Here are results for 10 compounds from PubChem BioAssay (NCI).

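Following 48 hours of exposure in 96-well plates, responses at five concentrations were used to interpolate endpoints linearly. Here, GI50 denotes the concentration required for 50% inhibition of growth. At the TGI there is no net growth.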

Among the test systems are NCI/ADR-RES ovarian; COLO 205 colon; 786-0 renal; HCC-2998 colon; SF-295 CNS; MOLT-4 leukemia; IGROV1 ovarian; HOP-92 NSCLC; EKVX NSCLC; SR leukemia.
What all share (experiment): growth of human tumour cells (NCI), 48 h

Consider `COc1ccc(N(/C=C/C(=O)C(F)(F)F)CC(=O)c2ccc(Cl)c(Cl)c2)cc1`, for which the GI50 is 19 µM in the assay on NCI/ADR-RES ovarian; 20.2 µM in the assay with COLO 205 colon; 15.5 µM in the assay on 786-0 renal; 18.5 µM with HCC-2998 colon; 14.5 µM in the assay with SF-295 CNS; 3.9 µM in the assay on MOLT-4 leukemia. The GI50 with IGROV1 ovarian is 22.8 µM; in the assay on HOP-92 NSCLC, 13.2 µM; with EKVX NSCLC it was 13.2 µM. The TGI was 39.3 µM in the assay on NCI/ADR-RES ovarian; 39.6 µM with COLO 205 colon; 29.5 µM with 786-0 renal; 32.5 µM in the assay with HCC-2998 colon; 28.6 µM in the assay with SF-295 CNS; more than 100 µM in the assay with MOLT-4 leukemia. The TGI with IGROV1 ovarian worked out at 60.9 µM; in the assay with HOP-92 NSCLC, 41.8 µM; in the assay on EKVX NSCLC it was 27.6 µM.

`C1=Nc2ccccc2C=Nc2ccccc2C=Nc2ccccc2C=Nc2ccccc21.[Cl-].[Pt+2]`: the GI50 in the assay on COLO 205 colon was 17.3 µM; with 786-0 renal, 32.2 µM; with MOLT-4 leukemia, 14.1 µM; in the assay on IGROV1 ovarian, 18.8 µM; with HOP-92 NSCLC it was 19.3 µM; with EKVX NSCLC, 37.5 µM. Besides, the TGI is 51.4 µM in the assay on COLO 205 colon; 97.1 µM with 786-0 renal; 49.3 µM in the assay with MOLT-4 leukemia; 49.5 µM with IGROV1 ovarian; 48.7 µM in the assay with HOP-92 NSCLC; more than 100 µM in the assay on EKVX NSCLC.

Turning to `OCC(O)C(O)C(O)/C=N/Nc1nc2ccccc2nc1-c1ccccc1` (stereo not drawn), the GI50 is 45.9 µM in the assay on NCI/ADR-RES ovarian; 51.6 µM in the assay on COLO 205 colon; more than 100 µM with 786-0 renal; 91.2 µM with HCC-2998 colon; more than 100 µM in the assay with SF-295 CNS; 57.4 µM in the assay with IGROV1 ovarian. Besides, the GI50 with HOP-92 NSCLC was 60.1 µM; in the assay on EKVX NSCLC it was more than 100 µM. For the same compound, the TGI with NCI/ADR-RES ovarian, in the assay with COLO 205 colon, with 786-0 renal, in the assay with HCC-2998 colon, in the assay on SF-295 CNS and in the assay with IGROV1 ovarian was more than 100 µM in each case. Moreover, the TGI in the assay with HOP-92 NSCLC and in the assay on EKVX NSCLC was more than 100 µM throughout.

For `N#Cc1c(N)nc(N2CCOCC2)c(C#N)c1-c1ccccc1Cl`, the GI50 with NCI/ADR-RES ovarian is 40.2 µM; with COLO 205 colon it was 38.1 µM; with 786-0 renal it was 62.1 µM; in the assay with HCC-2998 colon, 49.8 µM; in the assay on SF-295 CNS it was 38.5 µM; in the assay on MOLT-4 leukemia, 34.2 µM. The GI50 with IGROV1 ovarian was 14.7 µM; in the assay with HOP-92 NSCLC it was 16.9 µM; in the assay with EKVX NSCLC, 37.6 µM. The TGI with NCI/ADR-RES ovarian, in the assay on COLO 205 colon, in the assay with 786-0 renal, in the assay on HCC-2998 colon, in the assay on SF-295 CNS and in the assay with MOLT-4 leukemia was more than 100 µM in each case. Further, the TGI in the assay with IGROV1 ovarian was 41.7 µM; in the assay on HOP-92 NSCLC, 72.4 µM; in the assay with EKVX NSCLC, more than 100 µM.

On to `O=C1CCS/C(=N\S(=O)(=O)c2ccc(N3N=C4c5ccccc5CC4C3c3cccs3)cc2)N1C(=O)c1ccccc1` (stereo not drawn), for which the GI50 in the assay on NCI/ADR-RES ovarian is 32.9 µM; in the assay on COLO 205 colon, 66.5 µM; in the assay with 786-0 renal, 14.1 µM; in the assay with HCC-2998 colon, 18.2 µM; in the assay with SF-295 CNS it was 32.7 µM; in the assay with MOLT-4 leukemia it was 5.04 µM. Also, the GI50 in the assay with IGROV1 ovarian is 14.5 µM; in the assay with HOP-92 NSCLC, 25.4 µM; in the assay with EKVX NSCLC it was 22.1 µM. In addition, the TGI in the assay with NCI/ADR-RES ovarian is more than 100 µM; in the assay with COLO 205 colon it was more than 100 µM; in the assay with 786-0 renal it was 27.2 µM; in the assay on HCC-2998 colon, 32.1 µM; in the assay on SF-295 CNS, more than 100 µM; in the assay on MOLT-4 leukemia it was 77.9 µM. Also, the TGI in the assay on IGROV1 ovarian was 29.9 µM; in the assay with HOP-92 NSCLC it was more than 100 µM; with EKVX NSCLC, more than 100 µM.

Take `Cc1cc2cn3c4cccnc4[nH]c(=O)c3c2cc1C`: the GI50 was 1.39 µM in the assay on NCI/ADR-RES ovarian; 1.65 µM in the assay on COLO 205 colon; 1.87 µM in the assay with 786-0 renal; 1.5 µM in the assay on HCC-2998 colon; 1.51 µM in the assay with SF-295 CNS; 2.25 µM in the assay with MOLT-4 leukemia. The GI50 in the assay with HOP-92 NSCLC was 1.24 µM. Further, the TGI in the assay with NCI/ADR-RES ovarian came out at 2.96 µM; in the assay with COLO 205 colon, 3.18 µM; with 786-0 renal, 3.33 µM; with HCC-2998 colon, 2.92 µM; in the assay on SF-295 CNS, 3.26 µM; in the assay on MOLT-4 leukemia, 4.53 µM. In addition, the TGI in the assay on HOP-92 NSCLC stood at 2.65 µM.

As to `CSc1ncnc2c1CCN2`, the GI50 was more than 100 µM with COLO 205 colon; more than 100 µM in the assay with 786-0 renal; more than 100 µM in the assay with HCC-2998 colon; more than 100 µM in the assay with SF-295 CNS; more than 100 µM in the assay on IGROV1 ovarian; 75 µM in the assay with HOP-92 NSCLC. Further, the GI50 in the assay with EKVX NSCLC is more than 100 µM. Also, the TGI in the assay on COLO 205 colon, with 786-0 renal, in the assay on HCC-2998 colon, with SF-295 CNS, in the assay on IGROV1 ovarian and with HOP-92 NSCLC was more than 100 µM each time. Also, in the assay on EKVX NSCLC, the TGI is more than 100 µM.

In the case of `O=[N+]([O-])c1ccc2nc3ccccc3cc2c1`, the TGI in the assay with NCI/ADR-RES ovarian is 3.47 µM; in the assay with COLO 205 colon it was 14.9 µM; with 786-0 renal it was 14 µM; with HCC-2998 colon it was 3.12 µM; in the assay with IGROV1 ovarian it was 6.8 µM; in the assay on HOP-92 NSCLC it was 18.2 µM. This compound gave a TGI in the assay on EKVX NSCLC of 22.9 µM.

Turning to `N#CC1CC2(C(=O)C1=O)c1ccccc1-c1ccccc12` (stereo not drawn), the TGI with COLO 205 colon, in the assay with 786-0 renal, in the assay with HCC-2998 colon, in the assay on SF-295 CNS, in the assay on MOLT-4 leukemia and in the assay with SR leukemia was more than 100 µM in each case. Besides, the TGI in the assay on IGROV1 ovarian and with EKVX NSCLC was more than 100 µM throughout.

Take `Cn1cnc([N+](=O)[O-])c1Sc1nnnn1-c1ccccc1`: the TGI in the assay with COLO 205 colon is 20.7 µM; in the assay on 786-0 renal, 30.5 µM; in the assay on HCC-2998 colon it was 32.5 µM; in the assay with SF-295 CNS, 39.7 µM; in the assay with MOLT-4 leukemia, 6.22 µM; with IGROV1 ovarian it was 33.7 µM. Besides, the TGI came out at 13 µM in the assay with HOP-92 NSCLC and 29.6 µM in the assay on EKVX NSCLC.
